Results published in patent US20260216109A1, “TREATMENT OF SKIN DISORDERS WITH SHORT CHAIN FATTY ACIDS” (Temple University-Of The Commonwealth System of Higher …, priority 2023, published 2026).

Legend:
[1] = system: imiquimod (IMQ)-induced psoriasis model mice; experiment: Disease severity score, imiquimod (IMQ)-induced psoriasis model in mice; format: in vivo, mouse; settings: for disease severity score (psoriasis severity score): Example 12
Description: Topical application of IMQ, a TLR7/8 ligand and potent immune activator induced and exacerbated psoriasis in mice. The mouse IMQ-induced psoriasis (IMQ Ps) model was initiated by a repeated topical application of Aldara© cream (containing 5% IMQ) over 6 consecutive days. Female Balb/c mice (9 weeks of age at reception, ordered with 20 g, Charles River, Sulzfeld, Germany; n=10 mice/group, exception healthy controls n=4) received daily a topical application of 62.5 mg of commercially available IMQ cream (5% Aldara©) on the beforehand (day −1) shaved (~2 cm×3 cm), depilated (Pilka© cream) back skin, and 7 mg on the outer right ear skin for 6 consecutive days, translating in a daily dose of approximately 3.5 mg IMQ. Healthy control mice were included in the study and were treated with vehicle cream (Vaseline; Bombastus-Werke AG) only instead of IMQ. Additionally, an IMQ disease control group was also included.
Before starting treatment on the day of disease induction (day 0), mice were randomized based on body weight to the respective group. To evaluate the anti-inflammatory efficacy of the two test compounds in mouse IMQ psoriasis, mice were treated twice daily ([…] in sterile water; m/m/v) or with fixed dose of SCFA (in ddH2O) starting on day 0.
Disease Severity Score was evaluated on a daily base starting with the induction of psoriasis by IMQ application (day 0) until the end (day 6) of the study. The psoriasis severity on the back skin of the mice was evaluated by using a modified scoring system developed by van der Fits et al., based on the clinical PASI (psoriasis area and severity index) and takes skin erythema, scaling and skin thickening into account. Scoring was performed by the same lab technician throughout the experiment. Each parameter was scored independently on a scale from 0 to 3.
The added-up score (erythema plus scaling plus thickening), named disease severity score (scale 0-9), served then as marker for the severity of back skin inflammation. In addition, ear thickness of the right ear was determined daily by using an automatized caliper (Bayer AG, Germany).
The statistical analysis of the data was conducted by using the GraphPad PRISM software. Here, a one-way analysis of variance (ANOVA) and a pair-wise comparison to the IMQ disease control group (using the Dunnett's test) as a multiple comparison procedure was performed. Statistical significance was delineated by p value (*, p<0.05; **, p<0.01; ***, p<0.005; **** p<0.001).

K16 = experiment: Anti-K16 immunostaining of InflammaSkin models; format: cell-based, human; settings: Example 1; Day 7; Day 1-6: 1 μM Otezla or SCFA (45 μg/mL Ca-propionate + 1 mM Ca-/Mg-butyrate) systemic, 0.05% Betamethasone topical
Description: (§1) A total of 16 biopsies of 15 mm diameter were produced from a single donor. Two NativeSkin® models with 12/15 mm silicon rings were produced from the biopsies according to standard procedures in place, and cultured under cell culture conditions (37° C., 5% CO2, max. humidity) for 7 days with 2 mL of standard NativeSkin® medium renewed every day. Fourteen PSO-InflammaSkin® models with 12/15 mm silicon rings were produced by inducing in situ activation and Th17/Th1 polarization of skin resident T cells with a proprietary cocktail, and cultured under cell culture conditions (37° C., 5% CO2, max. humidity) for 7 days with 2 mL of PSO-InflammaSkin® culture medium renewed every day.
(§2) From Day 1 to Day 6, models were systemically treated with 1 μM Otezla or Short Chain Fatty Acids (SCFAs), or topically treated with positive control 0.05% Betamethasone
(§3) In these experiments, the SCFAs administered were 45 μg/mL of Ca-propionate and 1 mM mixture of salts (Ca-butyrate and Mg-butyrate).
At Day 7, supernatants were collected and stored at −80° C. and skin models of all conditions were carefully unmolded. Skin biopsies were re-punched to eliminate the area under the silicon ring, fixed in 10% buffered formalin and processed for paraffin wax embedding. […]

TNF-α = experiment: Multiplex (MSD V-PLEX) cytokine release, InflammaSkin: TNF-α; format: cell-based, human
Description: as §1, §2, §3
At Day 7, supernatants were collected and stored at −80° C. and skin models of all conditions were carefully unmolded. Skin biopsies were re-punched to eliminate the area under the silicon ring, fixed in 10% buffered formalin and processed for paraffin wax embedding.
Human pro-inflammatory cytokines released in the supernatant were quantified using the V-PLEX Human IL-17A Kit (MesoScale Discovery, reference: K151RFD-1) and V-PLEX Human TNFα Kit (MesoScale Discovery, reference: K151QWD-1). Values are expressed in pg/mL. For each condition, single values, mean and SEM were plotted using GraphPad Prism. Statistical analysis was performed using a One Way ANOVA test.
PSO-InflammaSkin® models were cultured and treated as described in Example 1. In these experiments, the SCFAs administered were 45 μg/mL of Ca-propionate and 1 mM mixture of salts (Ca-butyrate and Mg-butyrate).
Human pro-inflammatory cytokines released in the supernatant were quantified using the V-PLEX Human IL-17A Kit (MesoScale Discovery, reference: K151RFD-1) and V-PLEX Human custom Pro-inflammatory. Plate 1 comprised Proinflammatory Panel 1 (human) kit reference K15049 (panel IFN-γ and TNF-α). Plate 2 comprised TH17 Panel 1 (human) kit reference K15049 (panel IL-17A Gen B, IL-21, IL-22, IL-23, IL-27, IL-31, MIP-3α).
(§4) Samples were diluted four times for plate 2 and two times for plate 1. Samples and standards were assessed in duplicate. Plates were read on MesoScale Discovery Quickpleax SQ 120 plate reader and values expressed in pg/mL.
A statistical analysis was performed. Each condition was compared to the untreated InflammaSkin® condition. First, the distribution's normality of the two compared group was assessed. […] If the two distributions were normal, the homogeneity of variances was assessed using a Fisher test on the variances. […]

IL-22 = experiment: Multiplex (MSD V-PLEX) cytokine release, InflammaSkin: IL-22; format: cell-based, human; settings: Example 2; Day 7 supernatant; 1 μM Otezla or SCFA systemic, 0.05% Betamethasone topical; vs untreated InflammaSkin
Description: A total of 16 biopsies of 15 mm diameter were produced from a single donor. Two NativeSkin® models with 12/15 mm silicon rings were produced from the biopsies according to standard procedures in place, and cultured under cell culture conditions (37° C., 5% CO2, max. humidity) for 7 days with 2 mL of standard NativeSkin® medium renewed every day. Fourteen PSO-InflammaSkin® models with 12/15 mm silicon rings were produced by inducing in situ activation and Th17/Th1 polarization of skin resident T cells with a proprietary cocktail, and cultured under cell culture conditions (37° C., 5% CO2, max. humidity) for 7 days with 2 mL of PSO-InflammaSkin® culture medium renewed every day. […]
Human pro-inflammatory cytokines released in the supernatant were quantified using the V-PLEX Human IL-17A Kit (MesoScale Discovery, reference: K151RFD-1) and V-PLEX Human custom Pro-inflammatory. […]
as §4
A statistical analysis was performed. […] First, the distribution's normality of the two compared group was assessed. […] If the two distributions were normal, the homogeneity of variances was assessed using a Fisher test on the variances. […]

CCOc1cc([C@@H](CS(C)(=O)=O)N2C(=O)c3cccc(NC(C)=O)c3C2=O)ccc1OC [Otezla, Apremilast]
disease severity score (psoriasis severity), back skin ([1]; Example 4, oral gavage BID from day 0 to day 6, Apremilast 25 mg/kg BID (50 mg/kg/day), SCFA fixed dose (120 mg/kg/day Ca-propionate + 2,146 mg/kg/day Ca-/Mg-butyrate), vs IMQ control): significantly inhibited the psoriasis severity in IMQ-treated mice throughout the duration of the experiment | disease severity score (psoriasis severity) ([1]; Example 5, Apremilast 10 mg/kg/day and 14 mg/kg/day (5 and 7 mg/kg BID), oral): inhibited the psoriasis severity in IMQ-treated mice within the first four days of the study, but anti-inflammatory effects were not maintained until the end of the study at day 6 | disease severity score (psoriasis severity score) ([1]; Apremilast 12 mg/kg BID oral, monotherapy): did not reach significance at day 4 and day 5 | disease severity score (psoriasis severity score) ([1]; Apremilast 25 mg/kg BID oral alone, or combined with fixed dose SCFA (60 mg/kg/day Ca-propionate + 1,100 mg/kg/day Ca-/Mg-butyrate)): reduced the psoriasis severity score in IMQ-treated mice at day 4 of the study (p<0.05), and these effects were maintained at the end of the study at day 6 | K16 expression in the epidermis (K16): decreased the expression of K16 in the epidermis | increase of the release of TNF-α (TNF-α; Example 1, Day 7 supernatant, 1 μM Otezla systemic, vs untreated InflammaSkin): ~2 fold | TNFα secretion (TNF-α; Example 2, Day 7 supernatant, 1 μM Otezla or SCFA systemic, 0.05% Betamethasone topical, vs untreated InflammaSkin): significantly increased | TNFα level (by MSD) (TNF-α; Example 2, Otezla-treated InflammaSkin (untreated about 1 μg/mL)): about 2 μg/mL | IL-22 secretion (IL-22): significantly reduced
